Assay results published in ChEMBL document CHEMBL1153656, “Synthesis of homochiral potassium channel openers: role of the benzopyranyl 3-hydroxyl group in cromakalim and pyridine N-oxides in determining the biological activities of enantiomers” (Bioorg Med Chem Lett, 1992).

Species on record: Rattus norvegicus
Assay: The concentration of test substance producing half maximal reduction of the contraction evoked by 20 mM KCI in rat hepatic portal veins.
Format: functional

Structure (SMILES)	IC50 (Rattus norvegicus) [nM]	IC50 [nM]
CC1(C)C[C@H](c2cccc[n+]2[O-])c2cc(C#N)ccc2O1	210	–
CC1(C)Oc2ccc(C#N)cc2[C@@H](c2cccc[n+]2[O-])[C@@H]1O	100	–
CC1(C)C[C@@H](c2cccc[n+]2[O-])c2cc(C#N)ccc2O1	75	–
CC1(C)Oc2ccc(C#N)cc2[C@H](N2CCCC2=O)[C@H]1O (single isomer, unassigned) [(-)-CROMAKALIM]	–	74
CC1(C)Oc2ccc(C#N)cc2[C@H](N2CCCC2=O)[C@H]1O [(-)-CROMAKALIM]	–	6600

Continued by falling IC50 (Rattus norvegicus), values first:

IC50 (Rattus norvegicus) [nM]	IC50 [nM]	Structure (SMILES)
1200	–	CC1(C)Oc2ccc(C#N)cc2[C@H](c2cccc[n+]2[O-])[C@H]1O
1150	–	CC1(C)C[C@H](N2CCCC2=O)c2cc(C#N)ccc2O1
520	–	CC1(C)C[C@@H](N2CCCC2=O)c2cc(C#N)ccc2O1
